Source: ChEMBL document CHEMBL5365460, “Structural Mechanism and Inhibitors Targeting EGFR Exon 20 Insertion (Ex20ins) Mutations” (J Med Chem, 2023)

Assays:
BaF3 [1] = experiment: Antiproliferative activity against mouse BaF3 cells harboring wild type EGFR; assay type: functional, cell-based
[2] = Antiproliferative activity against mouse Ba/F3 EGFR-D770-N771ins_SVD cells; assay type: functional, cell-based
[3] = Selectivity index, ratio of IC50 for antiproliferative activity against mouse BaF3 cells harboring wild type EGFR to IC50 for antiproliferative activity against mouse Ba/F3 EGFR-V769_D770insASV cells; assay type: functional
[4] = Antiproliferative activity against mouse Ba/F3 EGFR-V769_D770insASV cells; assay type: functional, cell-based
BaF3 [5] = experiment: Antiproliferative activity against mouse BaF3 cells harboring wild type EGFR incubated for 48 hrs by Cell Titer-Glo assay; assay type: functional, cell-based; settings: BaF3, 48 h
[6] = Antiproliferative activity against mouse Ba/F3 EGFR-V769_D770insASV cells incubated for 48 hrs by Cell Titer-Glo assay; assay type: functional, cell-based
[7] = Antiproliferative activity against mouse Ba/F3 EGFR-D770-N771ins_SVD cells incubated for 48 hrs by Cell Titer-Glo assay; assay type: functional, cell-based
BaF3 [8] = experiment: Antiproliferative activity against mouse BaF3 cells harboring EGFR-D770-N771insNPG mutant incubated for 48 hrs by Cell Titer-Glo assay; assay type: functional, cell-based; settings: BaF3, 48 h
[9] = Antiproliferative activity against mouse Ba/F3 EGFR-H773-V774ins_NPH cells; assay type: functional, cell-based
[10] = Antiproliferative activity against mouse Ba/F3 EGFR-A763_Y764insFQEA cells; assay type: functional, cell-based
BaF3 [11] = experiment: Antiproliferative activity against mouse BaF3 cells harboring wild type EGFR incubated for 3 days by Cell Titer-Glo assay; assay type: functional, cell-based; settings: BaF3, 72 h
[12] = Antiproliferative activity against mouse Ba/F3 EGFR-A763_Y764insFQEA cells incubated for 3 days by Cell Titer-Glo assay; assay type: functional, cell-based; settings: 72 h
[13] = Antiproliferative activity against mouse Ba/F3 EGFR-V769_D770insASV cells incubated for 3 days by Cell Titer-Glo assay; assay type: functional, cell-based; settings: 72 h
[14] = Antiproliferative activity against mouse Ba/F3 EGFR-D770-N771ins_SVD cells incubated for 3 days by Cell Titer-Glo assay; assay type: functional, cell-based; settings: 72 h
BaF3 [15] = experiment: Antiproliferative activity against mouse BaF3 cells harboring EGFR-D770-N771insNPG mutant incubated for 3 days by Cell Titer-Glo assay; assay type: functional, cell-based; settings: BaF3, 72 h
[16] = Antiproliferative activity against mouse Ba/F3 EGFR-H773-V774ins_NPH cells incubated for 3 days by Cell Titer-Glo assay; assay type: functional, cell-based; settings: 72 h
NIH3T3 [17] = experiment: Antiproliferative activity against mouse NIH/3T3 cells harboring wild type EGFR incubated for 72 hrs by Cell Titer-Glo assay; assay type: functional, cell-based; settings: NIH3T3, 72 h
NIH3T3 [18] = experiment: Antiproliferative activity against mouse NIH/3T3 cells harboring EGFR-A763_Y764insFQEA incubated for 72 hrs by Cell Titer-Glo assay; assay type: functional, cell-based; settings: NIH3T3, 72 h
NIH3T3 [19] = experiment: Antiproliferative activity against mouse NIH/3T3 cells harboring EGFR-V769_D770insASV incubated for 72 hrs by Cell Titer-Glo assay; assay type: functional, cell-based; settings: NIH3T3, 72 h
NIH3T3 [20] = experiment: Antiproliferative activity against mouse NIH/3T3 cells harboring EGFR-D770-N771ins_SVD incubated for 72 hrs by Cell Titer-Glo assay; assay type: functional, cell-based; settings: NIH3T3, 72 h
NIH3T3 [21] = experiment: Antiproliferative activity against mouse NIH/3T3 cells harboring EGFR-H773-V774ins_NPH incubated for 72 hrs by Cell Titer-Glo assay; assay type: functional, cell-based; settings: NIH3T3, 72 h
BaF3 [22] = experiment: Antiproliferative activity against mouse Ba/F3 cells harboring EGFR-D770-N771ins_G mutant incubated for 3 days by Cell Titer-Glo assay; assay type: functional, cell-based; settings: BaF3, 72 h
BaF3 [23] = experiment: Antiproliferative activity against mouse Ba/F3 cells harboring EGFR-H773-V774ins_PH mutant incubated for 3 days by Cell Titer-Glo assay; assay type: functional, cell-based; settings: BaF3, 72 h
[24] = target: Epidermal growth factor receptor (Homo sapiens, UniProt P00533); experiment: Inhibition of wildtype EGFR (unknown origin) phosphorylation
Epidermal growth factor receptor (Homo sapiens, UniProt P00533), sequence (P00533 whole entry): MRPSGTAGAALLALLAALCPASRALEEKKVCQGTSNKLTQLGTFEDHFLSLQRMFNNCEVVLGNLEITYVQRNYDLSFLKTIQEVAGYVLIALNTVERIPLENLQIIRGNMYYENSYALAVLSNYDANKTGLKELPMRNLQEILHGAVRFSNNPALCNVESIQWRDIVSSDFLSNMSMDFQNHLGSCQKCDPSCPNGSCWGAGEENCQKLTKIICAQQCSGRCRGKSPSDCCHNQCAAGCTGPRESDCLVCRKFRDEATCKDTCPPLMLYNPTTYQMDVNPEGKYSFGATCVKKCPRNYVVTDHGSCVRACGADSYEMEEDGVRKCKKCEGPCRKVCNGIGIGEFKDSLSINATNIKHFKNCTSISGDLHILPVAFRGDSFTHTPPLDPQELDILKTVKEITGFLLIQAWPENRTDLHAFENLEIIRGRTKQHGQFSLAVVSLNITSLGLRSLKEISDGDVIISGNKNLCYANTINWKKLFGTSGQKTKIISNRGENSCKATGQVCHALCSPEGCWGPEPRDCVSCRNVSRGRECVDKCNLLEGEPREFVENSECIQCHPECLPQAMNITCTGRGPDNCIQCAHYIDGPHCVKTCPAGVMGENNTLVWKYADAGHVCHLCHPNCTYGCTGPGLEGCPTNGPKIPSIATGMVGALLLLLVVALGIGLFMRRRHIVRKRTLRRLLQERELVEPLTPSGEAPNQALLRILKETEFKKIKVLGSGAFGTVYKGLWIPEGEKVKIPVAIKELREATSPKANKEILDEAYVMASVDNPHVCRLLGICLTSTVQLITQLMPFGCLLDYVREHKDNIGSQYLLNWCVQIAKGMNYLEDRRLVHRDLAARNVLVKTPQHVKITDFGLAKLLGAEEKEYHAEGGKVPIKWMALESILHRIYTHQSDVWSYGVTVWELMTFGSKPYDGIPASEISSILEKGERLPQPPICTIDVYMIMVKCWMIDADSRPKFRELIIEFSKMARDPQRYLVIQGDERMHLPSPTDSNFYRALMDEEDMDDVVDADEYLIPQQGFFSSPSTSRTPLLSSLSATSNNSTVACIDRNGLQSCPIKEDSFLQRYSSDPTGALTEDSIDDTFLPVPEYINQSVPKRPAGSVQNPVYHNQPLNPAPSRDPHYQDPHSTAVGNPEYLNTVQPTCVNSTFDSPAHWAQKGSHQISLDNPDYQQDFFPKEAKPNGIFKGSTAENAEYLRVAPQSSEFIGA

[25] = target: Epidermal growth factor receptor (Homo sapiens, UniProt P00533, D770-N771INSNPG); experiment: Inhibition of EGFR-D770-N771insNPG mutant (unknown origin) phosphorylation
Epidermal growth factor receptor (Homo sapiens, UniProt P00533, D770-N771INSNPG), sequence (P00533 whole entry, looked up, stated change not applied): as the sequence (P00533 whole entry) above

[26] = Selectivity index, ratio of IC50 for antiproliferative activity against mouse BaF3 cells harboring wild type EGFR to IC50 for antiproliferative activity against mouse Ba/F3 EGFR-A763_Y764insFQEA cells; assay type: functional
[27] = Selectivity index, ratio of IC50 for antiproliferative activity against mouse BaF3 cells harboring wild type EGFR to IC50 for antiproliferative activity against mouse Ba/F3 EGFR-D770-N771ins_SVD cells; assay type: functional
[28] = Selectivity index, ratio of IC50 for antiproliferative activity against mouse BaF3 cells harboring wild type EGFR to IC50 for antiproliferative activity against mouse BaF3 cells harboring EGFR-D770-N771insNPG mutant; assay type: functional
[29] = Selectivity index, ratio of IC50 for antiproliferative activity against mouse BaF3 cells harboring wild type EGFR to IC50 for antiproliferative activity against mouse Ba/F3 EGFR-H773-V774ins_NPH cells; assay type: functional
[30] = Antiproliferative activity against mouse Ba/F3 EGFR-A763_Y764insFQEA cells incubated for 72 hrs by CCK-8 assay; assay type: functional, cell-based
[31] = Antiproliferative activity against mouse Ba/F3 EGFR-V769_D770insASV cells incubated for 72 hrs by CCK-8 assay; assay type: functional, cell-based
[32] = Antiproliferative activity against mouse Ba/F3 EGFR-D770-N771ins_SVD cells incubated for 72 hrs by CCK-8 assay; assay type: functional, cell-based
[33] = Antiproliferative activity against mouse Ba/F3 EGFR-H773-V774ins_NPH cells incubated for 72 hrs by CCK-8 assay; assay type: functional, cell-based
BaF3 [34] = experiment: Antiproliferative activity against mouse BaF3 cells harboring EGFR exon 20 insertion mutant incubated for 72 hrs by Cell Titer-Glo assay; assay type: functional, cell-based; settings: BaF3, 72 h
BaF3 [35] = experiment: Potency index, ratio of afatinib IC50 to test compound IC50 for antiproliferative activity against mouse BaF3 cells harboring EGFR exon 20 insertion mutant incubated for 72 hrs by Cell Titer-Glo assay; assay type: functional
[36] = Antiproliferative activity against human CUTO14 cells harboring EGFR V769_D770insASV mutant incubated for 72 hrs by Cell Titer-Glo assay; assay type: functional, cell-based; settings: CUTO14, 72 h
[37] = Antiproliferative activity against human YUL-0019 cells harboring EGFR N771delinsFH mutant incubated for 72 hrs by Cell Titer-Glo assay; assay type: functional, cell-based; settings: YUL-0019, 72 h
[38] = Metabolic stability in human hepatocytes assessed as intrinsic clearance measured per 10^6 cells at 100 uM measured upto 100 mins by LC-MS/MS analysis; assay type: ADME, cell-based, Hepatocyte; settings: read-out: CLH
[39] = Antiproliferative activity against human CUTO14 cells harboring EGFR V769_D770insASV mutant incubated for 72 hrs by MTS assay; assay type: functional, cell-based; settings: CUTO14, 72 h

C=CC(=O)Nc1cccc(N(C(=O)OCc2ccc(F)cc2)c2ccnc(Nc3cnn(C)c3)n2)c1
IC50 (BaF3 [1]): 7.6 nM | IC50 [2]: 15 nM | Ratio IC50 [3]: 0.22 | IC50 [4]: 34 nM

COc1c(F)cccc1Nc1c(-c2ccncc2OCC(C)(C)OC)[nH]c2c1C(=O)NCC2
Ratio IC50 [3]: 25.9 | IC50 (BaF3 [5]): 397 nM | IC50 [6]: 15.3 nM | IC50 [7]: 11.9 nM | IC50 (BaF3 [8]): 12.8 nM

COc1c(Cl)cccc1Nc1c(-c2ccncc2C#C[C@@]2(C)CCCN2C(=O)/C=C/CN(C)C)[nH]c2c1C(=O)NCC2
IC50 [2]: 6.22 nM | IC50 [4]: 5.62 nM | IC50 [9]: 16.7 nM | IC50 [10]: 7.7 nM

CN(C)C/C=C/C(=O)Nc1cc2c(Nc3ccc(F)c(Cl)c3)ncnc2cc1O[C@H]1CCOC1 [AFATINIB]
IC50 (BaF3 [11]): 3.8 nM | IC50 [12]: 2.7 nM | IC50 [13]: 46 nM | IC50 [14]: 163 nM | IC50 (BaF3 [15]): 40 nM | IC50 [16]: 102 nM | Ratio IC50 [3]: 0.08

C=CC(=O)N[C@H]1C=C(C)c2c(-c3cnc4ccccc4c3)c3c(N)ncnc3n2C1 [CLN-081]
IC50 (BaF3 [11]): 676 nM | IC50 [12]: 5 nM | IC50 [13]: 5 nM | IC50 [14]: 5 nM | IC50 [16]: 5 nM | IC50 (NIH3T3 [17]): 368 nM | IC50 (NIH3T3 [18]): < 4.48 nM | IC50 (NIH3T3 [19]): 78.2 nM | IC50 (NIH3T3 [20]): 23.4 nM | IC50 (NIH3T3 [21]): 66.7 nM | IC50 (BaF3 [22]): 5 nM | IC50 (BaF3 [23]): 5 nM | IC50 [24]: 8 nM | IC50 [25]: 7.4 nM

C#Cc1cccc(Nc2ncnc3cc(OCCOC)c(OCCOC)cc23)c1 [ERLOTINIB]
IC50 (BaF3 [11]): 71 nM | IC50 [12]: 214 nM | IC50 [13]: 1340 nM | IC50 [14]: 3480 nM | IC50 (BaF3 [15]): 2320 nM | IC50 [16]: 2700 nM | Ratio IC50 [3]: 0.05

C=CC(=O)Nc1cc(Nc2ncc(C(=O)OC(C)C)c(-c3cn(C)c4ccccc34)n2)c(OC)cc1N(C)CCN(C)C [MOBOCERTINIB]
IC50 (BaF3 [11]): 34.5 nM | IC50 [12]: 11.8 nM | IC50 [13]: 10.9 nM | IC50 [14]: 22.5 nM | IC50 (BaF3 [15]): 4.3 nM | IC50 [16]: 18.1 nM | Ratio IC50 [3]: 3.17 | Ratio IC50 [26]: 1.5 | Ratio IC50 [27]: 1.5 | Ratio IC50 [28]: 1.5 | Ratio IC50 [29]: 1.5

C=CC(=O)Nc1cc(Nc2nccc(-c3cn(C)c4ccccc34)n2)c(OC)cc1N(C)CCN(C)C [OSIMERTINIB]
IC50 (BaF3 [11]): 350 nM | IC50 [12]: 87 nM | IC50 [13]: 173 nM | IC50 [14]: 576 nM | IC50 (BaF3 [15]): 57 nM | IC50 [16]: 469 nM | Ratio IC50 [3]: 2.02

C=CC(=O)N1CCC(Oc2cc3c(Nc4ccc(Cl)c(Cl)c4F)ncnc3cc2OC)CC1 [POZIOTINIB]
IC50 [30]: 0.7 nM | IC50 [31]: 4.8 nM | IC50 [32]: 2.7 nM | IC50 [33]: 2.2 nM | IC50 (BaF3 [34]): 1 nM | Ratio IC50 (BaF3 [35]): ~40 | IC50 [36]: 1.8 nM | IC50 [37]: 0.3 nM

C=CC(=O)Nc1cc(Nc2nccc(Nc3cc(Cl)c(F)cc3C(C)(C)O)n2)c(OC)cc1N1CC[C@@H](N(C)C)C1 [SUNVOZERTINIB]
IC50 (BaF3 [11]): 12.7 nM | IC50 [13]: 22.1 nM | IC50 [16]: 29.6 nM | Ratio IC50 [3]: 0.57 | hepatocyte CLint at 100 µM [38]: 2.77 µL/min/1e6 cells

CN(C)C/C=C/C(=O)Nc1cc2c(Nc3ccc(Cl)c(Br)c3)ncnc2cn1 [TH-4000E]
IC50 [30]: < 0.5 nM | IC50 [31]: 7.6 nM | IC50 [32]: 7.3 nM | IC50 [33]: 9.9 nM | IC50 [39]: 72 nM

C=CC(=O)Nc1cc2c(Nc3ccc(OCc4ccccn4)c(Cl)c3)ncnc2cc1OCCN1CCOCC1 [TUXOBERTINIB]
IC50 (BaF3 [1]): ~1000 nM | IC50 [2]: < 100 nM
